We go through three compounds from patent US5250572A (priority 1992, dated 1993).

The test system of one data set is serotonin uptake. The following applies: words, cited from earlier work.
A further data set addresses T1, 5HT1A (Rattus norvegicus, UniProt P19327).
T1 construct: brain tissues from male Sprague-Dawley rats was homogenized; from tissue; host or cells: brain of male Sprague-Dawley rats, crude synaptosomal membranes
T1 sequence (P19327 1-422): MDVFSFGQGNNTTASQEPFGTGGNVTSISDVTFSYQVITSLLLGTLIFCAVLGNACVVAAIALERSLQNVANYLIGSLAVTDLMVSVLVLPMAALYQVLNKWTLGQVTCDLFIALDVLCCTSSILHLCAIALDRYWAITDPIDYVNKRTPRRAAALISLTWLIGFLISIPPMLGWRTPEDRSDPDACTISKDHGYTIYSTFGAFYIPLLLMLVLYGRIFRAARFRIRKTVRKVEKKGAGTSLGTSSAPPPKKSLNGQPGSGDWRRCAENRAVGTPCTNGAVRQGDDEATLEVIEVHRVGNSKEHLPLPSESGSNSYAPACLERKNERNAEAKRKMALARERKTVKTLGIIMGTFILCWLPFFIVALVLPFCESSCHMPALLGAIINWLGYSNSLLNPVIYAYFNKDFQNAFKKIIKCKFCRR
In words: Inhibition of 3H-8-hydroxy-2-(di-n-propylamino)tetralin binding to 5HT1A receptor. Details: species or system male Sprague-Dawley). Particulars: rat brain membranes, 25° C., 30 min, pH 7.4. The method, then:
(§1) This general procedure is set forth by Wong et al., Life Sciences, 46, 231 (1990).
(§2) Bovine choroid plexus and brain tissues from male Sprague-Dawley rats was homogenized in 9 volumes of 0.32 M sucrose. After centrifugation at 1000×g for 10 minutes and then at 17,000×g for 20 minutes, a crude synaptosomal fraction was sedimented. The pellet was suspended in 100 volumes of 50 mM Tris-HCI, pH 7.4, incubated at 37° C. for 10 minutes, and centrifuged at 50,000×g for 10 minutes. The process was repeated, and the final pellet of membrane was suspended in ice-chilled 50 mM Tris-HCI buffer, pH 7.4.
(§3) Binding of ^3 H-mesulergine to the 5HT1C receptor and other serotonergic ^3 H-ligands to subtypes of 5HT receptors (^3 H-8-hydroxy-2-(di-n-propylamino)tetralin to 5HT1A; ^3 H-serotonin to 5HT1B and 5HT1D; ^3 H-ketanserin to 5HT2; and ^3 H-1-methyl-N-(8-methyl-8-azabicyclo[3.2.1]oct-3-yl)-1H-indazaole-3-carboxamide to 5HT3 receptors) was performed according to the method described in the above reference. Briefly, membranes isolated from bovine choroid plexus (for 5HT1C) or rat brain were incubated at 25° C. for 30 minutes in 2 ml of 50 mM Tris-HCl, pH 7.4; 10 mM pargyline, 0.6 mM ascorbic acid; 5 mM CaCl2; and 2 nM ^3 H-mesulergine or other tritiated ligand. […] Radioactivity was measured with a liquid scintillation spectrometer. […]

The next data set deals with T2, 5HT1B (Rattus norvegicus, UniProt P28564).
T2 construct: brain tissues from male Sprague-Dawley rats was homogenized; from tissue; host or cells: brain of male Sprague-Dawley rats, crude synaptosomal membranes
Nature of the data set: Inhibition of 3H-serotonin binding to 5HT1B receptor. Also noted: species or system male Sprague-Dawley). Particulars: rat brain membranes, 25° C., 30 min, pH 7.4. The method, then: as §1, §2, §3

Another data set concerns the target T3, 5HT1C receptor (Bos taurus, UniProt A0AAA9SBU1).
T3 sequence (A0AAA9SBU1 33-457): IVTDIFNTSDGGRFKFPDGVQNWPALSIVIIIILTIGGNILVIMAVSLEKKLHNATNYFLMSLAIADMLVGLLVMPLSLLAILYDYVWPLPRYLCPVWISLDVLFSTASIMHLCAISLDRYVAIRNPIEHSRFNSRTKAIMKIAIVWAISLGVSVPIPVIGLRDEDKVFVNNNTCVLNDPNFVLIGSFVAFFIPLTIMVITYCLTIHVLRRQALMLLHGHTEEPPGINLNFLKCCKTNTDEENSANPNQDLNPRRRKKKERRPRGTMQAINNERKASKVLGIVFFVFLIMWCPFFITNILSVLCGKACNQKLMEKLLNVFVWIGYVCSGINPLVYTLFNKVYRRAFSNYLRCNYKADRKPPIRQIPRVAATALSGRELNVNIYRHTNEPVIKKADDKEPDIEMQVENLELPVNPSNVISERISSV
In words: Inhibition of 3H-mesulergine binding to 5HT1C receptor. The following applies: read-out: Inhibition of Radioligand Binding to 5HT Receptor, 1C (IC50); bovine choroid plexus membranes, 2 nM 3H-mesulergine, 25° C., 30 min, pH 7.4; mean of three experiments. The procedure:
as §1, §2, §3

The target in another data set is 5HT1D. In words: Inhibition of 3H-serotonin binding to 5HT1D receptor. Details: species or system male Sprague-Dawley). Particulars: read-out: Inhibition of Radioligand Binding to 5HT Receptor, 1D (IC50), rat brain membranes, 25° C., 30 min, pH 7.4. The procedure:
as §1, §2, §3

A further data set concerns the target T4, 5HT3 receptors (Rattus norvegicus, UniProt P35563).
T4 construct: brain tissues from male Sprague-Dawley rats was homogenized; from tissue; host or cells: brain of male Sprague-Dawley rats, crude synaptosomal membranes
T4 sequence (P35563 24-483): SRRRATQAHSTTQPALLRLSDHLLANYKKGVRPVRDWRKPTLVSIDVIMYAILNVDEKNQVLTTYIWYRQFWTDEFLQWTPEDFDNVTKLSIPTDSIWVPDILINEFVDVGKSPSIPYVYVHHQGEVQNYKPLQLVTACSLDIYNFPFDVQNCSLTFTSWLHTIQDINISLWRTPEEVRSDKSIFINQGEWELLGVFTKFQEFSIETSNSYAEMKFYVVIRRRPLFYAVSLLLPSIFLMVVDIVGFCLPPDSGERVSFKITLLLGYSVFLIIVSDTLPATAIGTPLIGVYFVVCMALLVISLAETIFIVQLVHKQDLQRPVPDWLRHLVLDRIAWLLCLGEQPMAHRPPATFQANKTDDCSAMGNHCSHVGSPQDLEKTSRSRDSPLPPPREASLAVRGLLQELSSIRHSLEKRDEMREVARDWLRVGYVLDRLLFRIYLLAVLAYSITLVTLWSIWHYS
In words: Inhibition of 3H-1-methyl-N-(8-methyl-8-azabicyclo[3.2.1]oct-3-yl)-1H-indazaole-3-carboxamide binding to 5HT3 receptors. Details: species or system male Sprague-Dawley). Particulars: rat brain membranes, 25° C., 30 min, pH 7.4. The method, then:
as §1, §2, §3

In data set [1] the test system is metabolism of concurrently administered drugs such as barbiturates or tricyclic antidepressants.
Data set [2] is described as follows: Toxicity and therapeutic index (statements in words).

T2 sequence (P28564 whole entry): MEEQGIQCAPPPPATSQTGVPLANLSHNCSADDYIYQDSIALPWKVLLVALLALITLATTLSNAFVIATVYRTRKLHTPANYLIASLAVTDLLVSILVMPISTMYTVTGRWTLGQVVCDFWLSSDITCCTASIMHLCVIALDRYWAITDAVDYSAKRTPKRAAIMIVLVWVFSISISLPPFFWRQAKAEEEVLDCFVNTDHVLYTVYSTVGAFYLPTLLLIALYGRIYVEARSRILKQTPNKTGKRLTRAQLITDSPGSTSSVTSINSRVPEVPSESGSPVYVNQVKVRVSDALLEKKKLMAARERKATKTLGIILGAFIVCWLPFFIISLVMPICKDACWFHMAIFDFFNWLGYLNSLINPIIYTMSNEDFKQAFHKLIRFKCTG

As to `NCCC(Oc1ccc(C(F)(F)F)cc1)c1ccccc1` (racemic) [Norfluoxetine, 3-(4-trifluoromethylphenoxy)-3-phenylpropylamine], the “serotonin / monoamine uptake blockade” value in the data set with serotonin uptake (background, known from earlier patents) is given as “block monoamine uptake, especially serotonin”.

On to `NCC[C@@H](Oc1ccc(C(F)(F)F)cc1)c1ccccc1` [(R)-Norfluoxetine], for which the IC50 stood at 22 µM on 5HT1A; 24 µM at 5HT1B; 0.47 µM at 5HT1C receptor; 101 µM on 5HT1D; 12 µM at 5HT3 receptors. Moreover, in data set [1], the “effect on metabolism of concurrently administered drugs” value was “little effect on metabolism of concurrently administered drugs”. In addition, in data set [2], the toxicity entry is “relatively non-toxic”.

For the compound `NCC[C@H](Oc1ccc(C(F)(F)F)cc1)c1ccccc1` [(S)-norfluoxetine], the “activity as serotonin uptake inhibitor” value with serotonin uptake (relative to (R)-antipode, from copending application Ser. No. 07/486,478) is on record as “substantially more active than its (R)-antipode”.
